Data: patent US9447116B2, “Inhibitors of HIV replication” (priority 2010, dated 2016)
pIC50: −log10 of the molar value.

Legend:
[1] = tested on: HIV-1 virus (NL4.3 strain); assay: MT-2 based antiviral assay (S8737E); assay type: cell-based; conditions: Human immunodeficiency virus 1, 72 h, read-out: Antiviral Activity (S8737E, μM), HIV-1 NL4.3 replication in MT2 cells, 3 days, β-Gal readout in JC53BL cells
From the text: MT-2 Based Antiviral Assay (S8737E)
This assay is designed to determine the effects of small molecules on the replication of HIV-1 in the lymphobastoid cell line, MT2, and is able to detect the antiviral effect of compounds acting at any stage of the HIV-1 replication cycle. The assay, along with its associated cytotoxicity assay, was described in detail in 2005 in a paper by Cao et al (Antimicrobial Agents and Chemotherapy 2005; 49(9), p 3833-3841).
MT2 cells are infected with the HIV-1 virus (NL4.3 strain; Adachi et al., Journal of Virology 1986) and transferred to assay plates containing serial dilutions of compounds to be tested. The assay plates are incubated for 3 days (MT2) to allow for several rounds of viral replication/infection to take place. At the end of this time, supernatant is transferred into new plates containing JC53BL cells.
JC53BL cells express CXCR4, CCR5 and CD4 receptors, and HIV-1-LTR-β-Gal. Under normal culture conditions undetectable levels of β-Galactosidase are expressed, but in the presence of HIV-1, the viral Tat protein is able to activate the HIV-1-LTR in the JC53BL cells resulting in the increased expression of the β-Gal enzyme. The expression can be measured using the ‘FluorAce β-Galactosidase reporter’ assay. The levels of β-Gal are directly proportional to the levels of Tat (up to a threshold) allowing virus quantification. Compounds that inhibit virus replication will give rise to a reduced signal and a dose-response curve for each compound can be generated. This is then used to determine the IC50 for each compound, a measure of the compound's potency.

[2] = target: T1, LEDGF-Integrase interaction (Human immunodeficiency virus type 1 group M subtype B, UniProt P12497); assay: HTRF Interaction assay (S9118); design: species or system HIV; conditions: His6-tagged integrase and MBP-LEDGF integrase binding domain
T1 construct: His6-tagged integrase (78 nM final concentration); purchased Prof; Zeger Debyser, Katholieke Universiteit Leuven (supplied by an academic laboratory, not a commercial vendor)
From the text: • Adachi, A., Gendelman, H., Koenig, S., Folks, T., Wiley, R., Rabson, A. and Martin, M (1986) Production of acquired immunodeficency syndrome-associated retrovirus in human and nonhuman cells transfected with an infectious molecular clone, J. Virol., 59, 284-291. • Cao J, Isaacson J, Patick A K, Blair W S. (2005) High-throughput human immunodeficiency virus type 1 (HIV-1) full replication assay that includes HIV-1 Vif as an antiviral target Antimicrobial Agents and Chemotherapy; 49(9), p 3833-3841. Assay to Measure the LEDGF-Integrase Integration Inhibitory Activity of Compounds of the Invention HTRF Interaction Assay (S9118)
An Homogeneous Time Resolved Fluorescence (HTRF) assay is performed in a manner similar to previous reports on HTRF protein assays as reviewed by Mathis (Clin. Chem., 2005). The assay procedure is performed as follows: reactions are performed in 20 μl final volume in 384-well black low volume microtiter plates (Greiner). The final reaction buffer contains 29 mM phosphase buffer (pH 7), 10 mM HEPES buffet (pH 7.4), 68.5 mM NaCl, 1.4 mM KCl, 400 mM KF 0.05% (w/v) pluronic acid (P104, Sigma Aldrich) and 1% (v/v) DMSO. His6-tagged integrase (78 nM final concentration) is incubated with […] fused to the Δ325 carboxy terminal integrase binding domain of LEDGF in the presence of compound for 2 hours at room temperature. Both these protein regents are supplied by Prof. Zeger Debyser of Katholleke Universiteit Leuven, Leuven, Belgium. The compounds are added at varying concentrations spanning a wide range from 0.1 up to 100 μM. Afterwards 8.3 nM of europium cryptate conjugated anti-MBP monoclonal antibody and 17 nM anti-His antibody conjugated with the acceptor fluorophore d2. Following a 2 hour room temperature incubation the plates are read on an EnVision™ microplate reader (Perkin Elmer) using an excitation wavelength of 320 nm. The ratio of fluorescence emitted at […] is used to assess the degree to which the protein-protein interaction had been inhibited.

| Compound | IC50 [1] | pIC50 ([2]; table values) | pIC50 [2] |
| --- | --- | --- | --- |
| Cc1nc2sc3c(c2c(-c2cccc4c2cnn4C)c1C(OC(C)(C)C)C(=O)O)CCCC3 (stereo not shown) [Example 24] | 2.81 µM | 5.12 |  |
| CCOC(C(=O)O)c1c(C)nc2sc3c(c2c1-c1ccccc1O)CCCC3 (stereo not shown) [Example 25] | 4.07 µM | < 4.00 |  |
| Cc1nc2sc3c(c2c(-c2cccc(C#N)c2)c1C(OC(C)(C)C)C(=O)O)CCCC3 (stereo not shown) [Example 26] | 4.51 µM | < 4.00 |  |
| Cc1nc2sc3c(c2c(-c2cccc(CO)c2)c1C(OC(C)(C)C)C(=O)O)CCCC3 (stereo not shown) [Example 27] | 4.64 µM | 4.24 |  |
| Cc1cc(C)n(-c2cccc(-c3c(C(OC(C)(C)C)C(=O)O)c(C)nc4sc5c(c34)CCCC5)c2)n1 (stereo not shown) [Example 28] | 5.61 µM | 4.53 |  |
| Cc1nc2sc3c(c2c(-c2ccc(N(C)C)nc2)c1C(OC(C)(C)C)C(=O)O)CCCC3 (stereo not shown) [Example 29] | 5.73 µM | 4.19 |  |
| Cc1nc2sc3c(c2c(-c2cnc4cc[nH]c4c2)c1C(OC(C)(C)C)C(=O)O)CCCC3 (stereo not shown) [Example 30] | 6.63 µM | 4.81 |  |
| CCOC(C(=O)O)c1c(C)nc2sc3c(c2c1-c1ccc2scnc2c1)CCCC3 (stereo not shown) [Example 31] | 6.66 µM | < 4.00 |  |
| Cc1nc2sc3c(c2c(-c2ccc4[nH]ncc4c2)c1C(OC(C)(C)C)C(=O)O)CCCC3 (stereo not shown) [Example 32] | 7.65 µM | < 4.00 |  |
| CCOC(C(=O)O)c1c(C)nc2sc3c(c2c1-c1ccc(C(F)(F)F)nc1)CCCC3 (stereo not shown) [Example 33] | 8.19 µM | < 4.00 |  |
| CCOC(C(=O)O)c1c(C)nc2sc3c(c2c1-c1ccccc1CO)CCCC3 (stereo not shown) [Example 34] | 8.97 µM | < 4.00 |  |
| CCOC(C(=O)O)c1c(C)nc2sc3c(c2c1-c1ccc2cnn(C)c2c1)CCCC3 (stereo not shown) [Example 35] | 10.7 µM | < 4.00 |  |
| Cc1nc2sc3c(c2c(-c2c[nH]c4nccc-4c2)c1C(OC(C)(C)C)C(=O)O)CCCC3 (stereo not shown) [Example 36] | 12 µM | < 4.00 |  |
| Cc1cc(-c2c(C(OC(C)(C)C)C(=O)O)c(C)nc3sc4c(c23)CCCC4)ccn1 (stereo not shown) [Example 37] | 13.9 µM | < 4.00 |  |
| Cc1nc2sc3c(c2c(-c2cccc(-n4cccn4)c2)c1C(OC(C)(C)C)C(=O)O)CCCC3 (stereo not shown) [Example 38] | 15.1 µM | 4.01 |  |
| COc1ncc(-c2c(C(OC(C)(C)C)C(=O)O)c(C)nc3sc4c(c23)CCCC4)cn1 (stereo not shown) [Example 39] | 15.5 µM | < 4.00 |  |
| CCOC(C(=O)O)c1c(C)nc2sc3c(c2c1-c1cnn(CC)c1)CCCC3 (stereo not shown) [Example 41] | 17.7 µM | < 4.00 |  |
| CCOC(C(=O)O)c1c(C)nc2sc3c(c2c1-c1ccc(OC)nc1)CCCC3 (stereo not shown) [Example 42] | 18.1 µM | < 4.00 |  |
| CCOC(C(=O)O)c1c(C)nc2sc3c(c2c1-c1ccc2c(cnn2C)c1)CCCC3 (stereo not shown) [Example 43] | 18.9 µM | < 4.00 |  |
| Cc1nc2sc3c(c2c(-c2ccc(Cl)cc2)c1[C@H](OC(C)(C)C)C(=O)O)CCCC3 [Example 44, (2S)-tert-butoxy[4-(4-chlorophenyl)-2-methyl-5,6,7,8-tetrahydro[1]benzothieno[2,3-b]pyridin-3-yl]acetic acid] | 0.036 µM |  | 6.24 |
| Cc1nc2sc3c(c2c(-c2ccc(Cl)cc2F)c1[C@H](OC(C)(C)C)C(=O)O)CCCC3 [Example 45, (2S)-tert-butoxy[4-(4-chloro-2-fluorophenyl)-2-methyl-5,6,7,8-tetrahydro[1]benzothieno[2,3-b]pyridin-3-yl]acetic acid] | 0.023 µM |  | 6.25 |
| Cc1ccc(-c2c([C@H](OC(C)(C)C)C(=O)O)c(C)nc3sc4c(c23)CCCC4)c(F)c1 [Example 47, (2S)-tert-butoxy[4-(2-fluoro-4-methylphenyl)-2-methyl-5,6,7,8-tetrahydro[1]benzothieno[2,3-b]pyridin-3-yl]acetic acid] | 0.071 µM |  | 6.18 |
| Cc1nc2sc3c(c2c(-c2ccc(C(F)F)cc2)c1[C@H](OC(C)(C)C)C(=O)O)CCCC3 [Example 49] | 0.081 µM |  | 4.96 |
| Cc1nc2sc3c(c2c(-c2ccc(C(F)(F)F)cc2)c1[C@H](OC(C)(C)C)C(=O)O)CCCC3 [Example 50, (S)-2-(tert-butoxy)-2-(2-methyl-4-(4-(trifluoromethyl)phenyl)-5,6,7,8-tetrahydrobenzo[4.5]thieno[2,3-b]pyridin-3-yl)acetic acid] | 0.055 µM |  | 5.82 |
| Cc1nc2sc3c(c2c(-c2ccc(Br)cc2)c1[C@H](OC(C)(C)C)C(=O)O)CCCC3 [Example 51, (S)-2-(4-(4-bromophenyl)-2-methyl-5,6,7,8-tetrahydrobenzo[4,5]thieno[2,3-b]pyridin-3-yl)-2-(tert-butoxy)acetic acid] | 0.08 µM |  | 5.94 |
| Cc1ccc(-c2c(C(OC(C)(C)C)C(=O)O)c(C)nc3sc4c(c23)CCOC4)cc1 (stereo not shown) [Example 52, Tert-Butoxy-(2-methy-4-p-tolyl-5,8-dihydro-6H-7-oxa-9-thia-1-aza-fluoren-3-yl)-acetic acid] | 0.189 µM |  | 5.56 |
